Results as given in patent US20060205949A1, “Crystalline forms of a biphenyl compound” (THERAVANCE, INC., priority 2005, published 2006).

Tested on: ACh-induced bronchoconstriction
Assay: Duration of bronchoprotection in guinea pig model of acetylcholine-induced bronchoconstriction
Type: in vivo
Conditions: inhalation, 1.5 hours post-dose, expected
Experimental: Groups of six male guinea pigs (Duncan-Hartley (HsdPoc:DH) Harlan, Madison, Wis.) weighing between 250 and 350 g are individually identified by cage cards. Throughout the study animals are allowed access to food and water ad libitum.
Test compounds are administered via inhalation over 10 minutes in a whole-body exposure dosing chamber (R&S Molds, San Carlos, Calif.). The dosing chambers are arranged so that an aerosol was simultaneously delivered to 6 individual chambers from a central manifold. Guinea pigs are exposed to an aerosol of a test compound or vehicle (WFI). […] This is measured gravimetrically by comparing pre-and post-nebulization weights of the filled nebulizer.
The bronchoprotective effects of test compounds administered via inhalation are evaluated using whole body plethysmography at 1.5, 24, 48 and 72 hours post-dose.
Forty-five minutes prior to the start of the pulmonary evaluation, each guinea pig is anesthetized with an intramuscular injection of ketamine (43.75 mg/kg), xylazine (3.50 mg/kg) and acepromazine (1.05 mg/kg). […] The depth of anesthesia is monitored and adjusted if the animal responds to pinching of its paw or if the respiration rate is greater than 100 breaths/minute. […]
Starting this program initiates the experimental protocol and data collection. […] By integrating this signal over time, a measurement of […] is calculated for each breath. […]

## O=C(CCN1CCC(OC(=O)Nc2ccccc2-c2ccccc2)CC1)NCCCCCNCc1ccc(O)cc1 [compound of formula I, biphenyl-2-ylcarbamic acid 1-{2-[5-(4-hydroxybenzylamino)pentylcarbamoyl]ethyl}piperidin-4-yl ester]
  PD2(50) for ACh-induced bronchoconstriction: less than 200 μg/mL
